The text below walks through data of PubChem BioAssay (NCI).

Each structure is given as a SMILES string.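 Protocol summary: plate cells (96-well), add compound at 5 concentrations, incubate 48 h, interpolate endpoints linearly. Abbreviation: GI50, concentration required for 50% inhibition of growth. Definition used: TGI = concentration required for complete inhibition of growth.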 Where only a bound is given, the exact number is not on record here.

Among the test systems are A549 NSCLC; HCC-2998 colon; MALME-3M melanoma; HCT-15 colon; DMS 273 small cell lung; SF-295 CNS; DLD-1 colon; SNB-78 CNS; 786-0 renal; SR leukemia; SK-MEL-2 melanoma.
Assay in all cases: NCI-60 cell line screen, 48 h

With `NC(=O)c1ncn2c(=O)n(CCCl)nnc12`, the TGI in the experiment with A549 NSCLC was found to be 628 µM; in the experiment on HCC-2998 colon, 366 µM; in the experiment with MALME-3M melanoma it was 346 µM; in the experiment on HCT-15 colon, 521 µM; in the experiment with DMS 273 small cell lung, 275 µM; in the experiment on SF-295 CNS, 239 µM. Further, the TGI turned out to be 720 µM with DLD-1 colon; 527 µM with SNB-78 CNS; 195 µM in the experiment on 786-0 renal; 801 µM in the experiment with SR leukemia; 511 µM in the experiment on SK-MEL-2 melanoma. Further, the GI50 in the experiment with SF-295 CNS was greater than 68 µM; with 786-0 renal it was 46.4 µM; in the experiment on SR leukemia, 57.9 µM.

On to `Cc1ccc(NC(=O)CCC(=O)C2Cc3ccccc3C2=O)cc1C` (configuration not stated), for which the TGI in the experiment with A549 NSCLC, with HCC-2998 colon, with MALME-3M melanoma, in the experiment on HCT-15 colon, in the experiment with DMS 273 small cell lung and in the experiment on SF-295 CNS was greater than 100 µM in each case. Further, the TGI with DLD-1 colon, with SNB-78 CNS, in the experiment with 786-0 renal, in the experiment on SR leukemia and in the experiment with SK-MEL-2 melanoma was greater than 100 µM throughout.

In the case of `O=c1[nH]c(=O)n(C2OC(CO)C(O)C2O)cc1F` (configuration not stated), the TGI in the experiment on A549 NSCLC is 38.4 µM; with HCC-2998 colon, 54.2 µM; in the experiment on MALME-3M melanoma it was 47.5 µM; in the experiment with HCT-15 colon, greater than 72.5 µM; in the experiment with DMS 273 small cell lung, greater than 100 µM; with SF-295 CNS, greater than 100 µM. Besides, the TGI was greater than 100 µM in the experiment with DLD-1 colon, 60.1 µM in the experiment with SNB-78 CNS, 21.1 µM in the experiment with 786-0 renal and greater than 84.6 µM with SK-MEL-2 melanoma. The GI50 in the experiment with HCC-2998 colon is 0.0346 µM; in the experiment with HCT-15 colon, 0.0207 µM; in the experiment on 786-0 renal it was 0.0462 µM; in the experiment on SR leukemia, 0.0274 µM.

For the compound `FC(F)(F)c1nc(Br)[nH]c1C(F)(F)F`, the TGI in the experiment with A549 NSCLC, in the experiment on HCC-2998 colon, with MALME-3M melanoma, in the experiment with HCT-15 colon, with DMS 273 small cell lung and in the experiment on SF-295 CNS was greater than 100 µM in each case. In addition, the TGI with DLD-1 colon, in the experiment on SNB-78 CNS, in the experiment on 786-0 renal, with SR leukemia and with SK-MEL-2 melanoma was greater than 100 µM in each case.

In the case of `CCOC(=O)CCn1cnc(N)n1`, the TGI in the experiment on A549 NSCLC, in the experiment on HCC-2998 colon, in the experiment with MALME-3M melanoma, in the experiment with HCT-15 colon, in the experiment on DMS 273 small cell lung and in the experiment with SF-295 CNS was greater than 100 µM each time. Besides, the TGI in the experiment on DLD-1 colon, with SNB-78 CNS, with 786-0 renal, in the experiment on SR leukemia and in the experiment on SK-MEL-2 melanoma was greater than 100 µM in each case.

Turning to `CNC(=O)NCCN1N=C(C)/C(=C\c2ccccc2)CC1=O`, the TGI with A549 NSCLC, in the experiment on HCC-2998 colon, in the experiment on MALME-3M melanoma, with DMS 273 small cell lung, in the experiment with SF-295 CNS and in the experiment on DLD-1 colon was greater than 100 µM in each case. Besides, the TGI with SNB-78 CNS, in the experiment on 786-0 renal, in the experiment on SR leukemia and in the experiment with SK-MEL-2 melanoma was greater than 100 µM in each case.

Consider `CSc1cc(C(C)(C)C)ccc1C(O)c1ccc(C(C)(C)C)cc1SC`, for which the TGI with A549 NSCLC came to 24.4 µM; in the experiment on HCC-2998 colon, 32.1 µM; in the experiment with MALME-3M melanoma, 29.9 µM; in the experiment on HCT-15 colon it was 29.9 µM; with DMS 273 small cell lung it was 26.9 µM; in the experiment with SF-295 CNS, 22.6 µM. For the same compound, the TGI in the experiment on DLD-1 colon amounted to 21.7 µM; with SNB-78 CNS it was 40.3 µM; with 786-0 renal, 22.7 µM; in the experiment on SR leukemia, 32.2 µM; in the experiment with SK-MEL-2 melanoma, 34.1 µM.
